In patent publication US20260014147A1, “STAT6 DEGRADERS” (Gilead Sciences, Inc., priority 2024, published 2026):

Experiments:
[1] = molecular target: T1, human STAT6 (truncated, aa122-658, with N-terminal His-tag) (Homo sapiens, UniProt P42226); experiment: Surface Plasmon Resonance (SPR) assay: binding of compounds to immobilized human STAT6; details: immobilized human STAT6 (aa122-658), 25° C.; geometric mean
T1 construct: Human STAT6 (truncated, aa122-658, with N-terminal His-tag, expressed in insect cells); His-tag (N); made in house; host or cells: insect cells
T1 sequence (P42226 122-658): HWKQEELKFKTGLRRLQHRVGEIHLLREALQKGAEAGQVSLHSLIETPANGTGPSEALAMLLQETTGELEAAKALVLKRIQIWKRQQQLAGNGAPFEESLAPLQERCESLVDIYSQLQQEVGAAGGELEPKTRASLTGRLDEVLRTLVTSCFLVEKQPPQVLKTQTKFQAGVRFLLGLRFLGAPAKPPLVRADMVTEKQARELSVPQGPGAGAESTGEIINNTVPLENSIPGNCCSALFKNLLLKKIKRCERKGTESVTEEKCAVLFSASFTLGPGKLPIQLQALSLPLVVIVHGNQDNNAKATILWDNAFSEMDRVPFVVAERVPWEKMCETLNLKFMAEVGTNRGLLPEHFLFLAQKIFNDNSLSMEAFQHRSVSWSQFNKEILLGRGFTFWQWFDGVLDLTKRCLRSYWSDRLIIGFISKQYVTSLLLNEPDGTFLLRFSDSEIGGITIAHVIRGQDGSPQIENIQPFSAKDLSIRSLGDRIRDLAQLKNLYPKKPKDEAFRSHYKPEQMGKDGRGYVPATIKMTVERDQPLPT
Protocol: SPR was used to confirm and quantify binding of compounds to human STAT6. Biacore instruments from the 8K-series (Cytiva) were used, and measurements were performed at 25° C. Human STAT6 (truncated, aa122-658, with N-terminal His-tag, expressed in insect cells) was immobilized in the active flow cells on a CM5 chip using amine-coupling (default settings) at 10 μg/ml in 10 mM acetate buffer pH 5.5, at a contact time of 120-420 sec. and a flow rate of […]. Reference flow cells were deactivated using blank immobilization. PBS-P+ (Cytiva) supplemented with 2% DMSO was used as running buffer, and solvent correction was applied. Compounds were tested by multi-cycle kinetics injections using a contact time of 60 sec., dissociation time of up to 300 sec., and a flow rate of […].
Solvent-corrected, reference-subtracted and blank-corrected data was processed and binding isotherms were fitted according to a single report point from each sensorgram (Standard: Late binding (5 sec. before injection end); alternative: Earlier report point according to binding profile). Data fitting was done both with unfixed Rmax and with Rmax fixed to the theoretical value* assuming 1:1 binding to allow processing of data from both weak and strong binders as well as to evaluate binding stoichiometry.
Positive controls were run at the beginning, during, and at the end of the screen to evaluate surface activity. Generally surface activity was only affected to a minor degree, and no corrections were applied.
*Equation for calculation of the theoretical Rmax (Theoretical Rmax=(MW Analyte/MW Ligand) x immobilization level).
The sensorgrams for Examples 2a1, 2t1, 2m1, and 2a2 are shown below (where RU is plotted vs. time in seconds; dotted lines/points were excluded from the analysis due to effects from non-specific binding).

[2] = tested on: Eotaxin-3 (CCL26) release in human whole blood stimulated with IL-4; experiment: Human Whole Blood Eotaxin-3 Assay (IL-4 stimulated, inhibition of eotaxin-3 release); type: cell-based; details: Homo sapiens, EC50 provided for test compounds with >80% Emax, geometric mean across assay runs and batches
In short: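 Lithium-heparin human whole blood preincubated 2 h at 37 °C with compounds (4-fold serial dilution, triplicate, 0.5% DMSO final), then stimulated with 400 pM IL-4 for 48 h. Eotaxin-3 (CCL26) in supernatant quantified by MSD immunoassay.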

[3] = molecular target: T2, STAT6 (endogenous, HiBiT-tagged) in HeLa LgBiT clone 4.14 cells (Homo sapiens, UniProt P42226); experiment: STAT6 Degrader Assay (HiBiT based, HeLa LgBiT clone 4.14 cells, luminescence, DC50); type: cell-based; details: Emax provided for test compounds with <80% Emax (and 2c15), geometric mean, read-out: STAT6 degradation Emax
T2 construct: These cells express endogenous STAT6; host or cells: HeLa LgBiT clone 4.14
T2 sequence (P42226 1-847): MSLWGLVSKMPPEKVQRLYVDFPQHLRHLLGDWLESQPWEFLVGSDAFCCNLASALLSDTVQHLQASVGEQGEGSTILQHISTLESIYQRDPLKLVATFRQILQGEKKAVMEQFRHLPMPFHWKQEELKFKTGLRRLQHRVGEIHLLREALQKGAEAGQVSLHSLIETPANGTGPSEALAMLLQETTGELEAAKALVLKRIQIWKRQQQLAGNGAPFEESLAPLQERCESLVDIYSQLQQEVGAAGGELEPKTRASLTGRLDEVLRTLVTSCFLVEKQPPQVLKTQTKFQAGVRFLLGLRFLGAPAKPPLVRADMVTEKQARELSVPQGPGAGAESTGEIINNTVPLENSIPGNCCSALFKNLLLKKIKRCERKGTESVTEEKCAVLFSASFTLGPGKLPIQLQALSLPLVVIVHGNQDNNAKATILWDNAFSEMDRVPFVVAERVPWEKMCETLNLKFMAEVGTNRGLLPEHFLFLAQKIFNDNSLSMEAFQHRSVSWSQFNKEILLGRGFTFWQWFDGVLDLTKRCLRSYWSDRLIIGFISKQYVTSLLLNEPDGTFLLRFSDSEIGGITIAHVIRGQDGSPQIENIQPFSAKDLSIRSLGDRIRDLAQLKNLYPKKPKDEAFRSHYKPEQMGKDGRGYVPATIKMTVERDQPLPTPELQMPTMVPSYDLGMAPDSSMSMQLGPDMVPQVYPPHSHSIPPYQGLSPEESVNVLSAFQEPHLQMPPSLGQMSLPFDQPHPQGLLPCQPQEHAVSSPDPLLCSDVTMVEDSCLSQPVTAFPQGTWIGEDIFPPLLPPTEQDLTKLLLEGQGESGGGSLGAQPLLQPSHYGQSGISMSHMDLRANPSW
In short: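 Remaining STAT6 is read as NanoBiT luminescence after 0.5 h with Nano-Glo, in HeLa LgBiT clone 4.14 cells expressing endogenous HiBiT-tagged STAT6, following 4-24 h compound incubation at 37 °C. Full degradation is set by 50 µM terfenadine, which kills the cells; degradation plotted against log compound concentration.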

Kd [1] [nM]	EC50 [2] [nM]	Emax [3] [%]	SMILES
193	556	70 to 80	Cn1c(CN2CCC(c3ccc(C(=O)N4CCC(CN5CCN(c6ccc(NC7CCC(=O)NC7=O)cc6F)CC5)CC4)cc3)CC2)cc2c(-c3ccc4[nH]ncc4c3)ccnc21 (centres unmarked) [Example 2c1, 3-((4-(4-((1-(4-(1-((4-(1H-indazol-5-yl)-1-methyl-1H-pyrrolo[2,3-b]pyridin-2-yl)methyl)-piperidin-4-yl)benzoyl)piperidin-4-yl)methyl)piperazin-1-yl)-3-fluorophenyl)amino)piperidine-2,6-dione]
< 20	–	< 20	Cn1c(CN2CCC(c3ccc(C(=O)N4CCC(CN5CCC(n6ncc7cc(NC8CCC(=O)NC8=O)ccc76)CC5)CC4)cc3)CC2)cc2c(-c3ccc4[nH]ncc4c3)ccnc21 (centres unmarked) [Example 2t4, 3-((1-(1-((1-(4-(1-((4-(1H-indazol-5-yl)-1-methyl-1H-pyrrolo[2,3-b]pyridin-2-yl)methyl)-piperidin-4-yl)benzoyl)piperidin-4-yl)methyl)piperidin-4-yl)-1H-indazol-5-yl)amino)piperidine-2,6-dione]
